Laboratory results taken from patent US20260078130A1, “NAMPT MODULATORS, PREPARATIONS, AND USES THEREOF” (SIRONAX LTD., priority 2022, published 2026).
Where two headings read alike, the source gives them in different places.

Legend:
[1] = tested on: endogenous NAMPT in U2OS cells; experiment: Cellular NAD+ modulation assay (NAD/NADH-Glo, U2OS cells); format: cell-based; details: Homo sapiens; for maximal fold induction: read-out: Cellular Emax
In short: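 Endogenous NAMPT stimulation in U2OS cells treated with compound dilution series for 24 h at 37 °C. Cells lysed with DTAB base, acid-treated 15 min at 60 °C, neutralized, NAD+ read by NAD/NADH-Glo luminescence after 40 min at room temperature. EC50 and Emax (fold over DMSO) derived.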

[2] = target: T1, human enzyme NAMPT (full length) (Homo sapiens, UniProt P43490); experiment: NMN fluorescence biochemical assay (stimulation of NMN synthesis by NAMPT); details: for EC50: concentration giving half-maximal activation, read-out: Enzymatic EC50; for Enzymatic Emax: fold change of maximal activation compared to DMSO
T1 construct: human enzyme NAMPT (full length)
In short: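 Full-length human NAMPT (100 nM) was preincubated 15 min at 37 °C with compound in 50 mM Tris-HCl pH 7.5, 10 mM MgCl2, 2 mM DTT, then reacted 1 h at 37 °C with 50 μM NAM, 100 μM PRPP, 4 mM ATP (stated solution concentrations). NMN was derivatised with acetophenone/KOH then formic acid and read at Ex/Em 382/445 nm; EC50 and Emax (fold over DMSO) reported.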

[3] = 24 hours incubation with compound
[4] = NMN synthesis by purified human NAMPT (100 nM)
[5] = 24 hours incubation, cellular NAD+
[6] = NMN fluorescence assay, purified human NAMPT 100 nM

T1 sequence (P43490 whole entry): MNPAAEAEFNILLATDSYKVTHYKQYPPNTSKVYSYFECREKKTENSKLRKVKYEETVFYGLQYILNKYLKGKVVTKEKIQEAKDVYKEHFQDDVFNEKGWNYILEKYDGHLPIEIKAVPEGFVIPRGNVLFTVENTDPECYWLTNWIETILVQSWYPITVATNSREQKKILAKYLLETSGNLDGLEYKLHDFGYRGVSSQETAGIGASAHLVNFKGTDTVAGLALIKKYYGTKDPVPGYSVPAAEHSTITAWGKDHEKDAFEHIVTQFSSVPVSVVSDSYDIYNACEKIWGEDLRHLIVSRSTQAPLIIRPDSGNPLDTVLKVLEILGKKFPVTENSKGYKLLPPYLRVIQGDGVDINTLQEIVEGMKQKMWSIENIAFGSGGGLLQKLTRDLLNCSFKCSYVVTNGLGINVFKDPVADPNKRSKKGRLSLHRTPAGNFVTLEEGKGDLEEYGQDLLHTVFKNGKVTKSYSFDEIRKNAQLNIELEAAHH

Row | EC50 [1, 3] [µM] | EC50 [2, 4] [µM] | Enzymatic Emax [2] | EC50 [1, 5] [µM] | EC50 [2, 6] [µM] | Structure (SMILES) | maximal fold induction [1, 3] | maximal fold induction [1, 5]
1 | 0.5 to 5 | 0.5 to 5 | B (3≥B>2) |  |  | CC1c2cc(C3COC3)ccc2C(=O)N1Cc1ccc2[nH]c(=O)oc2c1 (single isomer, unassigned) [Compound 198] | > 1.5 | 
2 |  |  | B (3≥B>2) | 0.5 to 5 | ≥ 5 | COc1ccc(CN2C(=O)c3ccc(Cl)cc3C2Cc2c(C)ncnc2C#N)cn1 (centres unmarked) [Compound 639, 5-((6-chloro-2-((6-methoxypyridin-3-yl)methyl)-3-oxoisoindolin-1-yl)methyl)-6-methylpyrimidine-4-carbonitrile] |  | 1.2 to 1.5
3 |  |  | A (A>3) | < 0.5 | 0.5 to 5 | Cn1ncc(Cl)c1CC1c2ccccc2C(=O)N1Cc1cnc(O)o1 (centres unmarked) [Compound 605, 3-((4-chloro-1-methyl-1H-pyrazol-5-yl)methyl)-2-((2-hydroxyoxazol-5-yl)methyl)isoindolin-1-one] |  | > 1.5
4 |  |  | B (3≥B>2) | < 0.5 | < 0.5 | O=C1c2ccccc2C(Cc2ncccc2Br)N1C/C=C/c1c[nH]nn1 (centres unmarked) [Compound 328, (E)-2-(3-(1H-1,2,3-triazol-4-yl)allyl)-3-((3-bromopyridin-2-yl)methyl)isoindolin-1-one] |  | > 1.5
5 | < 0.5 | < 0.5 | B (3≥B>2) |  |  | N#Cc1nccc(Br)c1CC1c2ccccc2C(=O)N1Cc1ccc2[nH]nnc2c1 (centres unmarked) [Compound 282, 3-((2-((1H-benzo[d][1,2,3]triazol-5-yl)methyl)-3-oxoisoindolin-1-yl)methyl)-4-bromopicolinonitrile] | 1.2 to 1.5 | 
6 | 0.5 to 5 | < 0.5 | A (A>3) |  |  | Cc1ccccc1CC1c2ccccc2C(=O)N1Cc1ccc2[nH]c(=O)oc2c1 (centres unmarked) [Compound 124, 6-((1-(2-methylbenzyl)-3-oxoisoindolin-2-yl)methyl)benzo[d]oxazol-2(3H)-one] | > 1.5 | 
7 |  |  | A (A>3) | 0.5 to 5 | 0.5 to 5 | O=C1c2ccccc2C(Cc2ncccc2Br)N1Cc1ccc(=O)[nH]c1 (centres unmarked) [Compound 322, 3-((3-bromopyridin-2-yl)methyl)-2-((6-oxo-1,6-dihydropyridin-3-yl)methyl)isoindolin-1-one] |  | > 1.5
8 |  |  | B (3≥B>2) | 0.5 to 5 | < 0.5 | Cc1ccnc(C#N)c1CC1c2cc(C#N)ccc2C(=O)N1Cc1ccc2[nH]nnc2c1 (centres unmarked) [Compound 359, 2-((1H-benzo[d][1,2,3]triazol-5-yl)methyl)-3-((2-cyano-4-methylpyridin-3-yl)methyl)-1-oxoisoindoline-5-carbonitrile] |  | > 1.5
9 | 5 to 50 | ≥ 5 | B (3≥B>2) |  |  | O=C1c2ccc(N3CCOCC3)cc2CN1Cc1ccc2[nH]c(=O)oc2c1 [Compound 47, 6-((5-morpholino-1-oxoisoindolin-2-yl)methyl)benzo[d]oxazol-2(3H)-one] | > 1.5 | 
10 |  |  | B (3≥B>2) | 0.5 to 5 | ≥ 5 | Cc1cccc2c1C(Cc1c(Cl)cnn1C)N(CC1CC3(CNC(=O)O3)C1)C2=O (centres unmarked) [Compound 470, 2-((3-((4-chloro-1-methyl-1H-pyrazol-5-yl)methyl)-4-methyl-1-oxoisoindolin-2-yl)methyl)-5-oxa-7-azaspiro[3.4]octan-6-one] |  | > 1.5
11 | < 0.5 | < 0.5 | A (A>3) |  |  | Cc1cccnc1C[C@H]1c2ccccc2C(=O)N1Cc1ccc2[nH]c(=O)oc2c1 [Compound 178, (S)-6-((1-((3-methylpyridin-2-yl)methyl)-3-oxoisoindolin-2-yl)methyl)benzo[d]oxazol-2(3H)-one] | > 1.5 | 
12 |  |  | B (3≥B>2) | < 0.5 | < 0.5 | Cn1ncc(Cl)c1CC1c2ccccc2C(=O)N1CC#Cc1cn[nH]c1 (centres unmarked) [Compound 453, 2-(3-(1H-pyrazol-4-yl)prop-2-yn-1-yl)-3-((4-chloro-1-methyl-1H-pyrazol-5-yl)methyl)isoindolin-1-one] |  | > 1.5
13 |  |  | C (2≥C) | 0.5 to 5 | < 0.5 | CN(C)CCOc1nn(C)c(CC2c3ccccc3C(=O)N2CC2CC3(CNC(=O)O3)C2)c1Cl (centres unmarked) [Compound 523, 2-((1-((4-chloro-3-(2-(dimethylamino)ethoxy)-1-methyl-1H-pyrazol-5-yl)methyl)-3-oxoisoindolin-2-yl)methyl)-5-oxa-7-azaspiro[3.4]octan-6-one] |  | > 1.5
14 | 5 to 50 | 0.5 to 5 | B (3≥B>2) |  |  | O=C1c2cccc(Br)c2CN1Cc1ccc(O)cc1 [Compound 21, 4-bromo-2-(4-hydroxybenzyl) isoindolin-1-one] | 1.2 to 1.5 | 
15 | 0.5 to 5 | 0.5 to 5 | C (2≥C) |  |  | Cc1ccc2c(c1)C(=O)N(Cc1ccc3[nH]c(=O)oc3c1)C2=O [Compound 297, 5-methyl-2-((2-oxo-2,3-dihydrobenzo[d]oxazol-6-yl)methyl)isoindoline-1,3-dione] | 1.2 to 1.5 | 
16 |  |  | C (2≥C) | 0.5 to 5 | ≥ 5 | COc1ncc(CN2C(=O)c3ccccc3C2Cc2c(Cl)cnn2C)o1 (centres unmarked) [Compound 603, 3-((4-chloro-1-methyl-1H-pyrazol-5-yl)methyl)-2-((2-methoxyoxazol-5-yl)methyl)isoindolin-1-one] |  | 1.2 to 1.5
17 | 5 to 50 | ≥ 5 | C (2≥C) |  |  | O=C1c2ccccc2CN1Cc1ccc2[nH]nnc2c1 [Compound 289, 2-((1H-benzo[d][1,2,3]triazol-5-yl)methyl)isoindolin-1-one] | 1.2 to 1.5 | 
18 |  |  | B (3≥B>2) | 0.5 to 5 | 0.5 to 5 | Cn1ncc(Cl)c1CC1c2ccccc2C(=O)N1CC1CC2(CNC(=S)O2)C1 (centres unmarked) [Compound 490, 3-((4-chloro-1-methyl-1H-pyrazol-5-yl)methyl)-2-((6-thioxo-5-oxa-7-azaspiro[3.4]octan-2-yl)methyl)isoindolin-1-one] |  | > 1.5
19 |  |  | A (A>3) | 5 to 50 | < 0.5 | Cn1ncc(Cl)c1CC1c2cc(OC3CNC3)ccc2C(=O)N1Cc1ccc2[nH]nnc2c1 (centres unmarked) [Compound 437, 2-((1H-benzo[d][1,2,3]triazol-5-yl)methyl)-5-(azetidin-3-yloxy)-3-((4-chloro-1-methyl-1H-pyrazol-5-yl)methyl)isoindolin-1-one] |  | > 1.5
20 | 0.5 to 5 | < 0.5 | A (A>3) |  |  | O=C1c2ccccc2C(Cc2ncccc2Br)N1Cc1cc2oc(=O)[nH]c2cc1F (centres unmarked) [Compound 223, 6-((1-((3-bromopyridin-2-yl)methyl)-3-oxoisoindolin-2-yl)methyl)-5-fluorobenzo[d]oxazol-2(3H)-one] | > 1.5 | 
21 | < 0.5 | < 0.5 | C (2≥C) |  |  | Cn1ncc(C#N)c1CC1c2ccccc2C(=O)N1Cc1ccc2[nH]nnc2c1 (centres unmarked) [Compound 317, 5-((2-((1H-benzo[d][1,2,3]triazol-5-yl)methyl)-3-oxoisoindolin-1-yl)methyl)-1-methyl-1H-pyrazole-4-carbonitrile] | 1.2 to 1.5 | 
22 |  |  | A (A>3) | < 0.5 | < 0.5 | Cn1ncc(Cl)c1CC1c2cc(C(F)F)ccc2C(=O)N1Cc1ccc2[nH]nnc2c1 (centres unmarked) [Compound 435, 2-((1H-benzo[d][1,2,3]triazol-5-yl)methyl)-3-((4-chloro-1-methyl-1H-pyrazol-5-yl)methyl)-5-(difluoromethyl)isoindolin-1-one] |  | > 1.5
23 | 0.5 to 5 | ≥ 5 | A (A>3) |  |  | Cc1ocnc1CC1c2ccccc2C(=O)N1Cc1ccc2[nH]c(=O)oc2c1 (centres unmarked) [Compound 231, 6-((1-((5-methyloxazol-4-yl)methyl)-3-oxoisoindolin-2-yl)methyl)benzo[d]oxazol-2(3H)-one] | > 1.5 | 
24 | 0.5 to 5 | ≥ 5 | A (A>3) |  |  | O=c1c2ccccc2ccn1Cc1ccc(O)cc1 [Compound 1, 2-(4-hydroxybenzyl)isoquinolin-1(2H)-one] | > 1.5 | 
25 |  |  | B (3≥B>2) | < 0.5 | < 0.5 | O=C1c2ccccc2C(Cc2ncsc2Cl)N1Cc1ccc2[nH]nnc2c1 (centres unmarked) [Compound 418, 2-((1H-benzo[d][1,2,3]triazol-5-yl)methyl)-3-((5-chlorothiazol-4-yl)methyl)isoindolin-1-one] |  | > 1.5
26 |  |  | A (A>3) | < 0.5 | 0.5 to 5 | Cn1ncc(Cl)c1CC1c2c(F)cccc2C(=O)N1CC1CC2(CNC(=O)O2)C1 (centres unmarked) [Compound 511, 2-((3-((4-chloro-1-methyl-1H-pyrazol-5-yl)methyl)-4-fluoro-1-oxoisoindolin-2-yl)methyl)-5-oxa-7-azaspiro[3.4]octan-6-one] |  | 1.2 to 1.5
